Target: ROCK2 (Homo sapiens (Human), UniProt O75116)
Test: ROCK assay (LABCHIP 3000 peptide phosphorylation assay)
Type: biochemical
Details: 5 μM ATP, 1.5 μM peptide substrate, dose-response
Protocol: The effectiveness of compounds of the present invention as ROCK inhibitors can be determined in a 30 μL assay containing 20 mM HEPES, pH 7.5, 20 mM MgCl2, 0.015% Brij-35, 4 mM DTT, 5 μM ATP and 1.5 μM peptide substrate (FITC-AHA-AKRRRLSSLRA-OH) (SEQ ID No. 1). Compounds were dissolved in DMSO so that the final concentration of DMSO was <2%, and the reaction was initiated with Rho kinase variants. After incubation, the reaction was terminated by the addition of EDTA and the phosphorylated and non-phosphorylated peptides separated using a LABCHIP® 3000 Reader (Caliper Life Sciences). […] Compounds were tested in dose-response format, and the inhibition of kinase activity was calculated at each concentration of compound. The inhibition data were fit using a curve-fitting program to determine the IC50; i.e., the concentration of compound required to inhibit 50% of kinase activity.

Sequence of ROCK2 (O75116 whole entry, species assumed): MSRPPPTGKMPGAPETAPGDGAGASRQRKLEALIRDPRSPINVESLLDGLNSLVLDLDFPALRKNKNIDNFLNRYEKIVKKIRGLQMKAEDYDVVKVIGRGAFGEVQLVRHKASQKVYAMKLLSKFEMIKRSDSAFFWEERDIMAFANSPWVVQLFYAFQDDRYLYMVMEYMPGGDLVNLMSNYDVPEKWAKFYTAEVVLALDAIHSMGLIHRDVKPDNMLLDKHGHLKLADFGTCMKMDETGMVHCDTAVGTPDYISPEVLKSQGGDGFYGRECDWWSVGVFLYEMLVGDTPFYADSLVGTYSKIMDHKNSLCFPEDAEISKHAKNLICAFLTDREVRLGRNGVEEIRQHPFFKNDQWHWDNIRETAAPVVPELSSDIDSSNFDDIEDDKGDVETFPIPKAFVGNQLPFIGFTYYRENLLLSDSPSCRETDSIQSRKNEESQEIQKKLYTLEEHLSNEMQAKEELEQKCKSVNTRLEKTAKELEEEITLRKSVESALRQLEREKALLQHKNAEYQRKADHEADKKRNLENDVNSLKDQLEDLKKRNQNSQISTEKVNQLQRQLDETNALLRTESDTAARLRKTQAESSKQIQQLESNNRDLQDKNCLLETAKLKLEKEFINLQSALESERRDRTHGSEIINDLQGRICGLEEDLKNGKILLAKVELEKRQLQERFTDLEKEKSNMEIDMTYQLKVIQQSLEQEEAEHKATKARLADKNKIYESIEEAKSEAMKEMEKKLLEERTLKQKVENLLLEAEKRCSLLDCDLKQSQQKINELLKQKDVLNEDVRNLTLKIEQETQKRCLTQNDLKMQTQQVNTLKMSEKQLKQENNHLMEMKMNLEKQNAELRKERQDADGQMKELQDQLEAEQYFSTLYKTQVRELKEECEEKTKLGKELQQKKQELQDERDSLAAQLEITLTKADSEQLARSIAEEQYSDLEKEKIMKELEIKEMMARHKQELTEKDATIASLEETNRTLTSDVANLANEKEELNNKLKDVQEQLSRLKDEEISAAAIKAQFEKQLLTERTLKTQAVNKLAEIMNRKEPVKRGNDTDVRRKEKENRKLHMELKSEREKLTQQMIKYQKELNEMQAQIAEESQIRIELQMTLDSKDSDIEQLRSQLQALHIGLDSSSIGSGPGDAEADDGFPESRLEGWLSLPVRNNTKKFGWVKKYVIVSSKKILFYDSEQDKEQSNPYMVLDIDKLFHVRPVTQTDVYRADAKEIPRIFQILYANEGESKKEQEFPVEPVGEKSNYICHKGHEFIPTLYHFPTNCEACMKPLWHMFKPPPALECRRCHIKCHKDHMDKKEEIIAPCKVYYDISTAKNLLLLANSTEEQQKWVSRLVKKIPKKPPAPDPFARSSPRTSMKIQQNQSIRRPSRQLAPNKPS

Compound	IC50
COc1ccc2nc(NC(=O)Cc3ccc(Oc4ncccc4C(N)=O)c(F)c3)n(CC(F)F)c2c1 [Example 123, 2-(4-(2-((1-(2,2-difluoroethyl)-6-methoxy-1H-benzo-[d]imidazol-2-yl)-amino)-2-oxoethyl)-2-fluorophenoxy)-nicotinamide]	18 nM
CS(=O)(=O)c1ccc2nc(NC(=O)Cc3ccc(Oc4ncccc4C(N)=O)cc3)sc2c1 [Example 076, 2-(4-(2-((6-(methylsulfonyl)benzo[d]thiazol-2-yl)amino)-2-oxoethyl)phenoxy) nicotinamide]	332 nM
CC(C)(O)COc1ccc2nc(NC(=O)Cc3ccc(Oc4ncccc4C(N)=O)c(F)c3)n(CC3CC3)c2c1 [Example 178, 2-(4-(2-((1-(cyclopropylmethyl)-6-(2-hydroxy-2-methylpropoxy)-1H-benzo[d]imidazol-2-yl)amino)-2-oxoethyl)-2-fluorophenoxy)nicotinamide]	14 nM
COc1ncc(-c2nc(NC(=O)Cc3ccc(Oc4ncccc4C(N)=O)c(F)c3)sc2C)cn1 [Example 040, 2-(2-fluoro-4-(2-((4-(2-methoxypyrimidin-5-yl)-5-methylthiazol-2-yl)amino)-2-oxoethyl)phenoxy)nico-tinamide]	99 nM
Cn1ccc(-c2ccc3sc(NC(=O)Cc4ccc(Oc5ncccc5C(N)=O)c(F)c4)nc3c2)n1 [Example 033, 2-(2-fluoro-4-(2-((5-(1-methyl-1H-pyrazol-3-yl)benzo[d]thiazol-2-yl)amino)-2-oxoethyl)phenoxy)nico-tinamide]	7 nM
NC(=O)c1cccnc1Oc1ccc(CC(=O)Nc2nc3ccc(OC(F)(F)F)cn3n2)cc1F [Example 140, 2-(2-fluoro-4-(2-oxo-2-((6-(trifluoromethoxy)-[1,2,4]triazolo[1,5-a]pyridin-2-yl)amino)ethyl)phenoxy)nicotinamide]	93 nM
CP(C)(=O)c1ccc2nc(NC(=O)Cc3ccc(Oc4ncccc4C(N)=O)c(F)c3)n(CC(F)F)c2c1 [Example 150, 2-(4-(2-((1-(2,2-difluoroethyl)-6-(dimethylphosphoryl)-1H-benzo[d]imidazol-2-yl)amino)-2-oxo-ethyl)-2-fluoro-phenoxy)nicotinamide]	465 nM
NC(=O)c1cccnc1Oc1ccc(CC(=O)Nc2nc3ccc(OCc4ccccc4)cc3n2CC2CC2)cc1F [Example 170, 2-(4-(2-((6-(benzyloxy)-1-(cyclo-propylmethyl)-1H-benzo[d]-imidazol-2-yl)-amino)-2-oxo-ethyl)-2-fluoro-phenoxy)nicotin-amide]	31 nM
NC(=O)c1cccnc1Oc1ccc(CC(=O)Nc2nc3cc(C(=O)c4ccccc4)ccc3[nH]2)cc1 [Example 072, 2-(4-(2-((5-benzoyl-1H-benzo[d]imidazol-2-yl)amino)-2-oxoethyl)phenoxy) nicotinamide]	147 nM
COc1cc(C#N)c2c(c1)CCN2C(=O)Cc1ccc(Oc2ncccc2C(N)=O)cc1 [Example 056, 2-(4-(2-(7-cyano-5-methoxyindolin-1-yl)-2-oxoethyl)phenoxy) nicotinamide]	1090 nM
CC(C)(O)COc1ccc2sc(NC(=O)Cc3ccc(Oc4ncccc4C(N)=O)c(Cl)c3)nc2c1 [Example 112, 2-(2-chloro-4-(2-((5-(2-hydroxy-2-methylpropoxy)benzo[d]thiazol-2-yl)amino)-2-oxoethyl)phenoxy)nicotinamide]	6 nM
NC(=O)c1cccnc1Oc1ccc(CC(=O)Nc2nc(C3CC3)ns2)cc1F [Example 101, 2-(4-(2-((3-cyclopropyl-1,2,4-thiadiazol-5-yl)amino)-2-oxoethyl)-2-fluorophenoxy)nico-tinamide]	261 nM
NC(=O)c1cccnc1Oc1ccc(CC(=O)Nc2nc(C3CCC3)c(-c3ccccn3)s2)cc1Cl [Example 023, 2-(2-chloro-4-(2-((4-cyclobutyl-5-(pyridin-2-yl)thiazol-2-yl)amino)-2-oxoethyl)phenoxy)nicotinamide]	4 nM
CP(C)(=O)c1ccc2sc(NC(=O)Cc3ccc(Oc4ncccc4C(N)=O)c(F)c3)nc2c1 [Example 146]	132 nM

Source: patent publication US11306081B2, “Phenylacetamides as inhibitors of rock” (BRISTOL-MYERS SQUIBB COMPANY, priority 2017, dated 2022)
